US20090291150A1, “METHOD AND COMPOSITIONS FOR TREATING AND […] BY […]-SENSING ION CHANNEL ACTIVITY” (priority 2008, published 2009)

Key:
[1] = test system: PTZ-evoked lethal seizures; test: CO2 inhalation at onset of PTZ-evoked generalized seizures, survival; format: in vivo, mouse; details: 90 mg/kg PTZ IP, 10% CO2 in air for 15 minutes from onset of generalized seizures
Method: Age (13-16 weeks) and gender-matched ASIC1a+/+ and ASIC1a−/− mice were injected IP with 90 mg/kg PTZ to test the anti-epileptic effects of CO2. A high dose of PTZ was administered to evoke lethal seizures in mice of both genotypes (FIG. 6a). Kaplan-Meier survival analysis of ASIC1a+/+ and ASIC1a−/− mice in response to 90 mg/kg PTZ while breathing compressed air was conducted (+/+, n 7; −/−, n=7). Both mice had the same rate of reduced survival (Mantel-Cox Log Rank, p=0.582).
After the onset of generalized-clonic seizures (identified behaviorally by clonus in all four limbs), compressed air or 10% CO2 (in air) was rapidly administered in an airtight Plexiglas chamber for 15 minutes (FIG. 6b). The onset latency and time of CO2 administration was similar between genotypes (inset) (unpaired T-test, df (14), t=0.663, p=0.518). The chamber was perfused with CO2 until minute 15, and then switched to compressed air for the duration of the trial (+/+, n=8; −/−, n=8). […] In the ASIC1a−/− mice, seizures continued to progress rapidly to death. All of the ASIC1a+/+ mice survived until the CO2 was switched back to air at minute 15, whereupon the mice rapidly died. The results verified the in vitro findings and taught that ASIC1a also mediates the anti-epileptic effects of low pH in vivo.

ASIC1a = target: T1, ASIC1a (Mus musculus, UniProt Q6NXK8); test: Kainate-induced seizures after ICV injection of PcTx1 in wild-type mice; format: in vivo; details: ICV injection 2 hours before kainate 20 mg/kg IP
T1 construct: from tissue; host or cells: brain of living wild-type mice (C57/B16 background), ICV injection
T1 sequence (Q6NXK8 1-526): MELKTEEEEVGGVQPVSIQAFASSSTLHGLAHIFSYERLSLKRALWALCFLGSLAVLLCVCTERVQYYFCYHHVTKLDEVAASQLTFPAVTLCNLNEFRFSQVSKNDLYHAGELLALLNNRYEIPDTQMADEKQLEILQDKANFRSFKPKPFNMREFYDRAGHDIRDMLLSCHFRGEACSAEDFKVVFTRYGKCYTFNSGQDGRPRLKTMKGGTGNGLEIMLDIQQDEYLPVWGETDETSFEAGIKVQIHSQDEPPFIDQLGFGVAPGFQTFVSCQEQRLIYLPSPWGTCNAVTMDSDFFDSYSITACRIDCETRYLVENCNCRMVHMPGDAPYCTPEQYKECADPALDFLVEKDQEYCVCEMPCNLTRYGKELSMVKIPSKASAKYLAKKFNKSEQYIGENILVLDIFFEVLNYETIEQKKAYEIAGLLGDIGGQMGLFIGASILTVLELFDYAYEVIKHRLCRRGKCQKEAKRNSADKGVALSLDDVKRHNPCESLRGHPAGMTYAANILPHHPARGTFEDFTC
Method: Similar effects on seizure activity with both ASIC1a gene disruption and pharmalogical blockade indicate that developmental abnormalities were not responsible for the effects in ASIC1a−/− mice.
Left-lateral, ICV guide cannulae were implanted in anesthetized mice (relative to bregma: anteroposterior −0.3 mm, lateral−1.0 mm, ventral=3.0 mm) and verified by methylene blue injection after euthanasia. Three to five days later, 5 uL or PcTx1-containing venom (SpiderPharm, Yarnell, Ariz.) ([…]) was injected in ACSF (in mM: NaCl 124, KCl 3, NaH2PO4 1.2, MgSO4 1.2, CaCl2 2, NaHCO3 26) or ACSF alone into wild-type mice using a 10 uL-Hamilton syringe connected to a 30-gauge injection (over 10 seconds). Two hours later, mice were injected with kainate (20 mg/kg, IP) then mouse behavior was scored. Continuous, tonic-clonic seizures were identified by tonus and clonus in all four limbs with loss of posture lasting greater than 60 seconds.

Compound | effect on lethal seizures (survival) ([1]; ASIC1a-/- mice) | effect on lethal seizures (survival) ([1]; WT (ASIC1a+/+) mice) | incidence of continuous GTCS following kainate injection (ASIC1a)
O=C=O [CO2, carbon dioxide] | had little effect | prevented lethal seizures | 
psalmotoxin 1 [PcTx1] |  |  | increased the incidence of continuous GTCS
